The record followed here is US11931485B2, “Implantable sustained release device and a method of use therefor in the treatment of brain disorders” (priority 2021, dated 2024).

Like-named read-outs stand apart in the source and are kept apart here.

The test system of assay [1] is trigeminal nerve ganglion function. The experiment in a line: Intra-arterial lidocaine in the middle meningeal artery territory in patients with refractory trigeminal neuralgia (blink reflex monitoring, clinical outcome). It is filed as in vivo. From the text:
Trigeminal neuralgia consists of unilateral, brief/paroxysmal, or continuous pain in one or more divisions of the trigeminal nerve. The pain is secondary to hyperactivity or spontaneous impulse generation within the nerves due to extrinsic compression or intrinsic neural dysfunction. In the experiment, the intra-arterial delivery of medication for modulating trigeminal nerve ganglion function in patients with refractory trigeminal neuralgia was examined. […] Clinical outcome assessment included a 10-point numeric rating, 4-point severity grading, and the pain-free time interval pre- and post-treatment.

Assay [2] concerns patients suffering from severe headaches.

For `CCN(CC)CC(=O)Nc1c(C)cccc1C` [lidocaine], the symptoms at follow-up entry in assay [1] (all three patients, 1 month later) is “returned to baseline severity”. Further, the facial hyperalgesia result in assay [1] (all three patients, all dermatomes) is on record as “improvement in facial hyperalgesia”. Besides, in assay [1] (second and third patients), the “pain severity (10-point numeric rating, 4-point severity grading)” value is on record as “improvement in pain severity on all scales”. Moreover, the pain-free interval in assay [1] (second patient) worked out at 5 days; in assay [1] (third patient), 3 days. The “self-reported headache intensity (Visual Analog scale)” value in assay [2] (first patient, after 5 min of lidocaine injection (40 mg), pre-procedure intensity 10) is 5; in assay [2] (second patient, after 5 min of lidocaine injection, pre-procedure intensity 7), 4.
